Measured values as given in the NIST ThermoML archive (doi:10.1016/j.jct.2009.07.020).

Legend:
[1] = 293.15 K, 101.33 kPa, Liquid; for speed of sound: Sing-around technique in a fixed-path interferometer; for mass density: Vibrating tube method
[2] = xn = mol fraction of the nth substance listed; conditions: 101 kPa, Liquid; for speed of sound: Sing-around technique in a fixed-path interferometer; for mass density: Vibrating tube method

BrCCBr [1,2-dibromoethane]
[1]
Conditions | mass density [kg/m3] | speed of sound [m/s]
– | 2179.6 | 1007

BrCCBr [1,2-dibromoethane] + CCCCCCCCCCO
[2]
Conditions | mass density, 293.15 K [kg/m3] | mass density, 313.15 K [kg/m3] | speed of sound, 293.15 K [m/s] | speed of sound, 313.15 K [m/s]
x1 = 0.0713 | 873.696 | 859.289 | 1363.1 | 1296.4
x1 = 0.1171 | 903.742 | 888.874 | 1341.8 | 1275.4
x1 = 0.1704 | 940.915 | 925.398 | 1317.2 | 1251.8
x1 = 0.2858 | 1030.69 | 1013.6 | 1266 | 1202.9
x1 = 0.3911 | 1125.7 | 1106.72 | 1218.3 | 1157.2
x1 = 0.51 | 1252.15 | 1230.3 | 1167.7 | 1108.9
x1 = 0.543 | 1291.44 | 1268.7 | 1153.4 | 1095
x1 = 0.5903 | 1351.8 | 1327.54 | 1134.1 | 1076.8
x1 = 0.6875 | 1492.47 | 1464.54 | 1095.3 | 1040.5
x1 = 0.7289 | 1560.17 | 1530.45 | 1080 | 1025.9
x1 = 0.7873 | 1665.23 | 1632.9 | 1059.7 | 1006.6
x1 = 0.8411 | 1773.36 | 1738.48 | 1042.2 | 990.48
x1 = 0.9006 | 1908.2 | 1870.5 | 1025.5 | 975.34
x1 = 0.9495 | 2033.54 | 1993.5 | 1015.6 | 965.65
x1 = 1 | 2179.6 | 2137.7 | 1007 | 955.97

ClCCCl [1,2-dichloroethane]
[1]
Conditions | mass density [kg/m3] | speed of sound [m/s]
– | 1252.74 | 1212.8

ClCCCl [1,2-dichloroethane] + CCCCCCCCCCO
[2]
Conditions | mass density, 293.15 K [kg/m3] | mass density, 313.15 K [kg/m3] | speed of sound, 293.15 K [m/s] | speed of sound, 313.15 K [m/s]
x1 = 0.0692 | 841.579 | 827.391 | 1382.8 | 1314.9
x1 = 0.1136 | 849.567 | 835.077 | 1373.9 | 1305.7
x1 = 0.2034 | 867.401 | 852.221 | 1355.3 | 1287.4
x1 = 0.2938 | 887.762 | 871.824 | 1335.6 | 1267.8
x1 = 0.3645 | 905.827 | 889.228 | 1319.7 | 1251.3
x1 = 0.507 | 949.509 | 931.327 | 1287.5 | 1217.8
x1 = 0.6043 | 986.214 | 966.695 | 1265.4 | 1195.1
x1 = 0.699 | 1029.23 | 1008.07 | 1244.6 | 1174.3
x1 = 0.7455 | 1053.66 | 1031.55 | 1235.1 | 1164.8
x1 = 0.7816 | 1074.54 | 1051.57 | 1228.3 | 1157.8
x1 = 0.8142 | 1094.99 | 1071.24 | 1222.5 | 1151.9
x1 = 0.8429 | 1114.4 | 1089.86 | 1218.1 | 1147.4
x1 = 0.9034 | 1160.56 | 1134.21 | 1211.6 | 1140.5
x1 = 0.9579 | 1209.39 | 1181.34 | 1210.4 | 1136.8
x1 = 1 | 1252.74 | 1223.38 | 1212.8 | 1136

CCCCCCCCCCO [decan-1-ol]
[1]
Conditions | mass density [kg/m3] | speed of sound [m/s]
– | 829.991 | 1396.4

CCCCCCCCCCO [decan-1-ol] + BrCCBr
[2], x2 = 0
Conditions | mass density [kg/m3] | speed of sound [m/s]
293.15 K | 829.991 | 1396.4
313.15 K | 816.264 | 1328.7

CCCCCCCCCCO [decan-1-ol] + ClC(Cl)=C(Cl)Cl
[2], x2 = 0
Conditions | mass density [kg/m3] | speed of sound [m/s]
293.15 K | 829.991 | 1396.4
313.15 K | 816.264 | 1328.7

CCCCCCCCCCO [decan-1-ol] + ClCCCl
[2], x2 = 0
Conditions | mass density [kg/m3] | speed of sound [m/s]
293.15 K | 829.991 | 1396.4
313.15 K | 816.264 | 1328.7

ClC(Cl)=C(Cl)Cl [tetrachloroethene]
[1]
Conditions | mass density [kg/m3] | speed of sound [m/s]
– | 1622.39 | 1053.8

ClC(Cl)=C(Cl)Cl [tetrachloroethene] + CCCCCCCCCCO
[2]
Conditions | mass density, 293.15 K [kg/m3] | mass density, 313.15 K [kg/m3] | speed of sound, 293.15 K [m/s] | speed of sound, 313.15 K [m/s]
x1 = 0.057 | 854.607 | 840.425 | 1378.1 | 1310.7
x1 = 0.1355 | 890.745 | 875.885 | 1350.2 | 1283.1
x1 = 0.2186 | 932.241 | 916.585 | 1319.8 | 1252.8
x1 = 0.2882 | 969.944 | 953.338 | 1294.8 | 1228.4
x1 = 0.3824 | 1025.8 | 1007.72 | 1260.6 | 1195
x1 = 0.4464 | 1067.31 | 1048.17 | 1237.2 | 1172
x1 = 0.499 | 1103.86 | 1083.69 | 1218.5 | 1153.5
x1 = 0.5849 | 1168.91 | 1146.94 | 1187.2 | 1122.7
x1 = 0.6417 | 1216.01 | 1192.81 | 1166.5 | 1102.9
x1 = 0.7175 | 1284.75 | 1259.72 | 1139.4 | 1076
x1 = 0.7786 | 1345.73 | 1319.21 | 1117.7 | 1054.1
x1 = 0.8527 | 1427.55 | 1398.72 | 1092.4 | 1029.3
x1 = 0.9003 | 1485.31 | 1455.08 | 1077.6 | 1015
x1 = 0.941 | 1538.45 | 1507.24 | 1065.9 | 1005
x1 = 1 | 1622.39 | 1588.98 | 1053.8 | 993.96
